Source: patent publication US20030022821A1, “Bioactive peptides” (priority 1998, published 2003)
In brackets after ≈: the same amount, converted by molar mass. Peptide text beside a SMILES is read from it. * marks the point of attachment. Acm = CC(=O)NC*

Tests used:
Assay type in all cases: cell-based
[1] = test system: Escherichia coli ATCC 25922; conditions: ATCC 25922
Summary of the method: (§1)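 Standard broth microdilution MIC in 1% Bacto Peptone water, inoculum 2×10^6 CFU/ml of mid-log-phase bacteria grown in 2% peptone water. Run in triplicate; peptide concentration in wells verified by HPLC.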

[2] = test system: Staphylococcus aureus ATCC 25923; conditions: ATCC 25923
Summary of the method: as §1

human red blood cells = test: Hemolytic assay; conditions: red cells of human
Method: The hemolytic activities of the peptides were determined using fresh human red blood cells. 8 ml blood was taken from a healthy person. 4 ml blood was transferred to a polycarbonate tube containing heparin to a final concentration of 10 U/ml, and the remaining 4 ml blood was transferred to a glass tube containing EDTA with final concentration of 15% EDTA. The erythrocytes were isolated from heparin-treated blood by centrifugation in 1500 rpm for 10 min and washed three times with phosphate-buffered saline (PBS) to remove plasma and buffy coat. The cell pellet was resuspended in PBS to make the final volume of 4 ml. The peptide was diluted to a concentration of 2 mg/ml and 0.1 mg/ml. The peptide was further diluted to the concentrations as stated in Table 15. For each tube PBS was added first, then RBCs and peptide solutions. The hematocrit in the blood treated with EDTA was determined after 30 min with Sysmex K-1000, and the resuspended RBCs were diluted into 10% hematocrit. RBCs in PBS (1%) with and without peptides (Table 15) were incubated in a shaker at […] for 1 hour and then centrifuged at 4000 rpm for 5 min. The supernatant were carefully transferred to new polycarbonate tubes and the absorbance of the supernatant was measured at 540 nm. Baseline hemolysis was hemoglobin released in the presence of PBS, and 100% hemolysis was hemoglobin released in the presence of 0.1% Triton X-100.

Row | SMILES | MIC E. coli [1] [µg/mL] | MIC S. aureus [2] [µg/mL] | % Hemolysis 10 μg/ml (human red blood cells) [%] | % Hemolysis 100 μg/ml (human red blood cells) [%]
1 | CSCC[C@H](NC(=O)[C@H](CCC(=O)O)NC(=O)[C@H](Cc1c[nH]c2ccccc12)NC(=O)[C@H](CCC(N)=O)NC(=O)[C@H](Cc1c[nH]c2ccccc12)NC(=O)[C@H](CCCNC(=N)N)NC(=O)[C@H](CC(C)C)NC(=O)[C@H](CSCNC(C)=O)NC(=O)[C@H](CCCCN)NC(=O)[C@H](C)N)C(=O)N[C@@H](CCCNC(=N)N)C(=O)N[C@@H](CCCCN)C(=O)N[C@H](C(=O)NCC(=O)NCC(=O)O)C(C)C [LFM A1 W8] (H-AKC(Acm)LRWQWEMRKVGG-OH; N-terminus assumed) | 750 (≈ 391 µM) | >1000 | 2.4 | 3
2 | CSCC[C@H](NC(=O)[C@H](C)NC(=O)[C@H](Cc1c[nH]c2ccccc12)NC(=O)[C@H](CCC(N)=O)NC(=O)[C@H](Cc1c[nH]c2ccccc12)NC(=O)[C@H](CCCNC(=N)N)NC(=O)[C@H](CC(C)C)NC(=O)[C@H](CSCNC(C)=O)NC(=O)[C@H](CCCCN)NC(=O)[C@@H](N)CCC(=O)O)C(=O)N[C@@H](CCCNC(=N)N)C(=O)N[C@@H](CCCCN)C(=O)N[C@H](C(=O)NCC(=O)NCC(=O)O)C(C)C [LFM A9 W8] (H-EKC(Acm)LRWQWAMRKVGG-OH; N-terminus assumed) | >1000 | >1000 | 2.5 | 3.5
3 | CSCC[C@H](NC(=O)[C@H](CCCNC(=N)N)NC(=O)[C@H](Cc1c[nH]c2ccccc12)NC(=O)[C@H](CCC(N)=O)NC(=O)[C@H](Cc1c[nH]c2ccccc12)NC(=O)[C@H](CCCNC(=N)N)NC(=O)[C@H](CC(C)C)NC(=O)[C@H](CSCNC(C)=O)NC(=O)[C@H](CCCCN)NC(=O)[C@@H](N)CCC(=O)O)C(=O)N[C@@H](CCCNC(=N)N)C(=O)N[C@@H](CCCCN)C(=O)N[C@H](C(=O)NCC(=O)NCC(=O)O)C(C)C [LFM R9 W8] (H-EKC(Acm)LRWQWRMRKVGG-OH; N-terminus assumed) | 500 (≈ 249 µM) | >1000 | 3.1 | 4.59

Further lines, with some results ahead:

Row | MIC E. coli [1] [µg/mL] | MIC S. aureus [2] [µg/mL] | SMILES | % Hemolysis 10 μg/ml (human red blood cells) [%] | % Hemolysis 100 μg/ml (human red blood cells) [%]
4 | 200 (≈ 107 µM) | >1000 | CSCC[C@H](NC(=O)[C@H](C)NC(=O)[C@H](Cc1c[nH]c2ccccc12)NC(=O)[C@H](CCC(N)=O)NC(=O)[C@H](Cc1c[nH]c2ccccc12)NC(=O)[C@H](CCCNC(=N)N)NC(=O)[C@H](CC(C)C)NC(=O)[C@H](CSCNC(C)=O)NC(=O)[C@H](CCCCN)NC(=O)[C@H](C)N)C(=O)N[C@@H](CCCNC(=N)N)C(=O)N[C@@H](CCCCN)C(=O)N[C@H](C(=O)NCC(=O)NCC(=O)O)C(C)C [LFM A1, 9 W8] (H-AKC(Acm)LRWQWAMRKVGG-OH; N-terminus assumed) | 2.8 | 3.7
5 | 25 (≈ 12.3 µM) | 75 (≈ 36.9 µM) | CSCC[C@H](NC(=O)[C@H](CCCNC(=N)N)NC(=O)[C@H](Cc1c[nH]c2ccccc12)NC(=O)[C@H](CCC(N)=O)NC(=O)[C@H](Cc1c[nH]c2ccccc12)NC(=O)[C@H](CCCNC(=N)N)NC(=O)[C@H](CC(C)C)NC(=O)[C@H](CSCNC(C)=O)NC(=O)[C@H](CCCCN)NC(=O)[C@@H](N)CCCNC(=N)N)C(=O)N[C@@H](CCCNC(=N)N)C(=O)N[C@@H](CCCCN)C(=O)N[C@H](C(=O)NCC(=O)NCC(=O)O)C(C)C [LFM R1, 9 W8] (H-RKC(Acm)LRWQWRMRKVGG-OH; N-terminus assumed) | 3.69 | 
6 | 75 (≈ 37.4 µM) | 500 (≈ 249 µM) | CSCC[C@H](NC(=O)[C@H](CCC(=O)O)NC(=O)[C@H](Cc1c[nH]c2ccccc12)NC(=O)[C@H](CCC(N)=O)NC(=O)[C@H](Cc1c[nH]c2ccccc12)NC(=O)[C@H](CCCNC(=N)N)NC(=O)[C@H](CC(C)C)NC(=O)[C@H](CSCNC(C)=O)NC(=O)[C@H](CCCCN)NC(=O)[C@@H](N)CCCNC(=N)N)C(=O)N[C@@H](CCCNC(=N)N)C(=O)N[C@@H](CCCCN)C(=O)N[C@H](C(=O)NCC(=O)NCC(=O)O)C(C)C [LFM R1, W8] (H-RKC(Acm)LRWQWEMRKVGG-OH; N-terminus assumed) | 2.8 | 3.48
